# Measured values from the supplement of paper PMC10920090.
# Assays:
# MDA-MB-231 [1] = assay: drug sensitivity score (DSS), cytotoxicity CellTox Green; higher = more cytotoxic; extreme values may be limits of the assay; conditions: 72 h
# MDA-MB-231 [2] = assay: drug sensitivity score (DSS), cell viability CellTiter-Glo; higher = more sensitive; extreme values may be limits of the assay; conditions: 72 h
# 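Throughout, for drug sensitivity score (DSS), cytotoxicity CellTox Green: DSS summarises each dose–response curve by combining IC50, EC50, maximal inhibition and efficacy across drug concentrations.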
SMILES,drug sensitivity score (MDA-MB-231 [1]; shRNA: shPPFIA1_1) [DSS],drug sensitivity score (MDA-MB-231 [1]; shRNA: shScramble) [DSS],drug sensitivity score (MDA-MB-231 [2]; shRNA: shPPFIA1_1) [DSS],drug sensitivity score (MDA-MB-231 [2]; shRNA: shScramble) [DSS]
CCCOc1ccn2c(C(C)=O)cc(-c3ccccc3S(C)(=O)=O)c2c1 [GSK2801],0,0,0,0
COc1cc([C@@H]2c3cc4c(cc3[C@@H](O[C@@H]3O[C@@H]5CO[C@@H](c6cccs6)O[C@H]5[C@H](O)[C@H]3O)[C@H]3COC(=O)[C@H]23)OCO4)cc(OC)c1O [Teniposide],5.8,5.3,3.1,9
CO[C@H]1C(=O)[C@]2(C)[C@@H](OC)C[C@H]3OC[C@@]3(OC(C)=O)[C@H]2[C@H](OC(=O)c2ccccc2)[C@]2(O)C[C@H](OC(=O)[C@H](O)[C@@H](NC(=O)OC(C)(C)C)c3ccccc3)C(C)=C1C2(C)C [Cabazitaxel],0,9.7,16.4,11.5
N#CC1(c2ccc(NC(=O)c3cccnc3NCc3ccncc3)cc2)CCCC1 [Apatinib],0,0,0,0
Cc1nc(Nc2n[nH]c3c2CN(C(=O)N[C@H](CN(C)C)c2ccccc2)C3(C)C)c2sccc2n1,5.8,4.8,5.6,10.1
COc1cc2c(NC3CCN(C(C)C)CC3)nc(C3CCCCC3)nc2cc1OCCCN1CCCC1 [UNC0638],7,6.8,8.3,6.3
CN(C)C(=O)c1cc2cnc(Nc3ccc(N4CCNCC4)cn3)nc2n1C1CCCC1 [Ribociclib],0,0,0,0
O=NN(CCCl)C(=O)NC1CCCCC1 [Lomustine],0,0,0,0
Cn1cncc1[C@@](N)(c1ccc(Cl)cc1)c1ccc2c(c1)c(-c1cccc(Cl)c1)cc(=O)n2C [Tipifarnib],5.9,0.8,3.5,4
CNc1nc(Nc2cn(C(C)(C)C#N)nc2C)ncc1C(F)(F)F [GNE-0877],0,0,0,0
Cc1ncc(Cl)cc1NCc1ccc(C(=O)N[C@@H](CC2CCCC2)C(=O)NC2CC2)s1,0,0,0,0
O=C1c2c(O)ccc(O)c2C(=O)c2c(NCCNCCO)ccc(NCCNCCO)c21 [Mitoxantrone],0,0,0,3.2
CC[C@@H]1C(=O)N(C)c2cnc(Nc3ccc(C(=O)N[C@H]4CC[C@H](N5CCN(CC6CC6)CC5)CC4)cc3OC)nc2N1C(C)C [Volasertib],0,0,0,6.6
CCn1cc(-c2ccnc3[nH]c(-c4cccc(CN(C)C)c4)cc23)c(-c2ccc(NC(=O)N(C)C)cc2)n1,0,6.4,3.9,0
CC(C)c1c(C(=O)Nc2ccccc2)c(-c2ccccc2)c(-c2ccc(F)cc2)n1CC[C@@H](O)C[C@@H](O)CC(=O)O [Atorvastatin],2,0.6,2.5,7.3
N[C@@H](Cc1ccc(N(CCCl)CCCl)cc1)C(=O)O [Melphalan],0,0,0,0.4
O=C(CCCCCCNC(=O)c1cnc(N(c2ccccc2)c2ccccc2)nc1)NO [Rocilinostat],6.7,1,2.1,3.5
CNC(=O)c1ccc(-c2cnc3ncc(Cc4ccc5ncccc5c4)n3n2)cc1F [NVP-INC280],0,0,4.5,10.5
CCNC(=O)Nc1ccc(-c2nc3c(c(N4CCOC[C@@H]4C)n2)CCN(C2COC2)C3)cc1 [RG-7603],0,0,0,2.7
CC1=C(/C=C/C(C)=C/C=C/C(C)=C/C(=O)O)C(C)(C)CCC1 [Tretinoin],0,0,0,0
Nc1nc2[nH]cnc2c(=S)[nH]1 [Thioguanine],0,0,5.1,10.2

SMILES,drug sensitivity score (MDA-MB-231 [1]; shRNA: shPPFIA1_1) [DSS],drug sensitivity score (MDA-MB-231 [1]; shRNA: shScramble) [DSS],drug sensitivity score (MDA-MB-231 [2]; shRNA: shPPFIA1_1) [DSS],drug sensitivity score (MDA-MB-231 [2]; shRNA: shScramble) [DSS]
S=c1[nH]cnc2nc[nH]c12 [Mercaptopurine],0,0,5.1,12
COc1cc(O)c2c(c1)/C=C/C[C@H](O)[C@H](O)C(=O)/C=C\C[C@H](C)OC2=O [(5Z)-7-Oxozeaenol],0.4,2.7,0,2.1
Nc1nc(OCc2cc(Br)cs2)c2[nH]cnc2n1 [Lomeguatrib],0,0,0.1,0
CC(C)(C)NC(=O)[C@H]1CC[C@H]2[C@@H]3CC[C@H]4NC(=O)C=C[C@]4(C)[C@H]3CC[C@]12C [Finasteride],0,0,0,0
CN(C)C[C@@H]1CCn2cc(c3ccccc32)C2=C(C(=O)NC2=O)c2cn(c3ccccc23)CCO1 [Ruboxistaurin],3.8,5.5,7.2,7
C[C@@H]1C=C2C(=O)O[C@@H]3CC[C@H](C1)[C@]23O [Galiellalactone],2.9,1.8,0.2,2.1
CCS(=O)(=O)N1CC(CC#N)(n2cc(-c3ncnc4[nH]ccc34)cn2)C1 [Baricitinib],0,0,0.9,0.9
CNC(=O)c1cccc(-c2ccc3c(N4CCOC[C@@H]4C)nc(N4CCOC[C@@H]4C)nc3n2)c1 [AZD2014],0,0.5,0,7.9
NCCNc1ccc(NCCN)c2c1C(=O)c1ccncc1C2=O [Pixantrone],0,0,3.1,0.4
C[C@]12C=CC(=O)C=C1CC[C@@H]1[C@@H]2C(=O)C[C@@]2(C)[C@H]1CC[C@]2(O)C(=O)CO [Prednisone],0,0,0,0
O=C(O)CNC(=O)c1c(O)c2ccccc2n(Cc2ccccc2)c1=O [IOX-2],0,0,5,4
COc1cc2c(NC3CCN(C(C)C)CC3)nc(N3CCC(F)(F)CC3)nc2cc1OCCCN1CCCC1 [UNC0642],3,0.5,3.5,3.1
COc1cc(F)c(F)c(Nc2ccc(I)cc2F)c1NS(=O)(=O)C1(C[C@H](O)CO)CC1 [Refametinib],10.5,18.6,6,10.6
c1ccc([C@H]2CN3CCSC3=N2)cc1 [Levamisole],0,0,0,0
C[C@@H]1C[C@H]2[C@@H]3CCC4=CC(=O)C=C[C@]4(C)[C@@]3(F)[C@@H](O)C[C@]2(C)[C@@]1(O)C(=O)CO [Dexamethasone],0,0,0,0
CC(C)Nc1cc(-c2c[nH]c(C(=O)N[C@H](CO)c3cccc(Cl)c3)c2)c(Cl)cn1 [Ulixertinib],0,2.7,0,2.1
CCc1cc2c(cc1N1CCC(N3CCOCC3)CC1)C(C)(C)c1[nH]c3cc(C#N)ccc3c1C2=O [Alectinib],0,0,0,0.4
CN1CCN(c2cc(C(=O)Nc3ccc4c(c3)-c3c(c(C(N)=O)nn3-c3ccc(F)cc3)CC4)c(Cl)cn2)CC1 [PHA 408],5.2,6.9,4.2,6.3
CO[C@H]1C[C@@H]2CC[C@@H](C)[C@@](O)(O2)C(=O)C(=O)N2CCCC[C@H]2C(=O)O[C@H]([C@H](C)C[C@@H]2CC[C@@H](O)[C@H](OC)C2)CC(=O)[C@H](C)/C=C(\C)[C@@H](O)[C@@H](OC)C(=O)[C@H](C)C[C@H](C)/C=C/C=C/C=C/1C [Sirolimus],0,0,0,6
O=C(NC[C@H](O)CN1CCc2ccccc2C1)c1cc(NC2COC2)ncn1,0,0,0.5,1.8
CC(=O)N(O)CCCCCNC(=O)CCC(=O)N(O)CCCCCNC(=O)CCC(=O)N(O)CCCCCN [Deferoxamine],0,0,2.5,2.7

SMILES,drug sensitivity score (MDA-MB-231 [1]; shRNA: shPPFIA1_1) [DSS],drug sensitivity score (MDA-MB-231 [1]; shRNA: shScramble) [DSS],drug sensitivity score (MDA-MB-231 [2]; shRNA: shPPFIA1_1) [DSS],drug sensitivity score (MDA-MB-231 [2]; shRNA: shScramble) [DSS]
Cc1cnc(-c2ccccc2C(C)C)nc1NCc1ccc(-n2ccnn2)cc1 [ML323],0,0,0,1.7
CCNC(=O)c1noc(-c2cc(C(C)C)c(O)cc2O)c1-c1ccc(CN2CCOCC2)cc1 [Luminespib],0,2,9.5,12.2
O=C(c1cc(Cc2n[nH]c(=O)c3ccccc23)ccc1F)N1CCN(C(=O)C2CC2)CC1 [Olaparib],0,0,0.1,0.8
C[C@]12O[C@H](C[C@]1(O)CO)n1c3ccccc3c3c4c(c5c6ccccc6n2c5c31)CNC4=O [Lestaurtinib],0,0,1.1,4.9
c1ccc(Cn2c(-c3ccc(OC[C@H](C4CCNCC4)n4c(-c5ccccc5)nc5ccccc54)cc3)nc3ccccc32)cc1 [deltarasin],9.2,7.3,5.7,7.3
CCOC(=O)CCNc1cc(N2CCc3ccccc3CC2)nc(-c2ccccn2)n1 [GSK-J4],7.4,8.3,10.2,11.3
CS(=O)(=O)CCNCc1ccc(-c2ccc3ncnc(Nc4ccc(OCc5cccc(F)c5)c(Cl)c4)c3c2)o1 [Lapatinib],0,0,0,0
Cn1cnc2c(F)c(Nc3ccc(Br)cc3Cl)c(C(=O)NOCCO)cc21 [Selumetinib],3.8,8,0.3,5.2
O=S(=O)(c1cccc2c(O)nccc12)N1CCCNCC1 [Hydroxyfasudil],0,0,0,0
Nc1cc(F)ccc1NC(=O)/C=C/c1cnn(C/C=C/c2ccccc2)c1 [RGFP966],3.1,0,2.6,0.2
COc1ncc(-c2ccc3nccc(-c4ccnnc4)c3c2)cc1NS(=O)(=O)c1ccc(F)cc1F [Omipalisib],0,0,0,10.9
CCCc1cc(C)[nH]c(=O)c1CNC(=O)c1cc(-c2ccnc(N3CCN(C)CC3)c2)cc2c1cnn2C(C)C [GSK343],3.8,1.9,6,3.1
Cc1cccc(CC(=O)N2CCc3c2ccc(-c2cn(C)c4ncnc(N)c24)c3F)n1,15,0,0,0.3
CO[C@@]12[C@H](COC(N)=O)C3=C(C(=O)C(C)=C(N)C3=O)N1C[C@@H]1N[C@@H]12 [Mitomycin C],0,0,0,0
CCCCCCCCc1ccc(CCC(N)(CO)CO)cc1 [Fingolimod],6.7,6.8,7.5,8
CC[C@H](C)C(=O)O[C@H]1C[C@H](O)C=C2C=C[C@H](C)[C@H](CC[C@@H](O)C[C@@H](O)CC(=O)O)[C@H]21 [Pravastatin],0,0,2.5,1.8
COc1c(C)cnc(Cn2cnc3c(Cl)nc(N)nc32)c1C [BIIB021],3.1,2.8,10.8,15.9
Cc1sc2c(c1C)C(c1ccc(Cl)cc1)=N[C@@H](CC(=O)Nc1ccc(O)cc1)c1nnc(C)n1-2 [OTX015],0,0,0,10.2
O=C(/C=C\n1cnc(-c2cc(C(F)(F)F)cc(C(F)(F)F)c2)n1)NNc1cnccn1 [Selinexor],5.8,8.1,8.6,13.5
CN(C)Cc1ccc(S(=O)(=O)n2ccc(/C=C/C(=O)NO)c2)cc1 [Resminostat],7.5,4.4,2.5,7.1
COc1cc(OC)c(/C=C/S(=O)(=O)Cc2ccc(OC)c(NCC(=O)O)c2)c(OC)c1 [Rigosertib],2.4,2.4,0,5.3
